# System: ERK phosphorylation in KYSE-520 cells
# Assay: Phospho-ERK cellular assay
# Format: cell-based
# Conditions: Homo sapiens, KYSE-520, 2 h, KYSE-520 cells, 2 h at 37° C., phospho-ERK1/2 (Thr202/Tyr204) TR-FRET; read-out: PERK IC50
# Protocol: ERK phosphorylation was detected using the “Advanced phospho-ERK1/2 (Thr202/Tyr204)” TR-FRET kit (Cisbio, Cat #64AERPEG/H), following the manufacturer reagents and instructions.
# Briefly, 20.000/well KYSE-520 cells (DSMZ ACC 371) were plated in 6 μL RPMI-1640 (Invitrogen) growth medium, into 384 white low-volume high base TC microplates (Greiner). After an overnight incubation, cells were treated with DMSO serial diluted compounds and incubated for 2 h at 37° C. After incubation, 2 μL/well of 4×Lysis Buffer (Cisbio 64KL1FDF), were added and incubated with cells for 30 min on gentle shaking. Finally, lysates were added with 2 μL/well of Eu cryptate (donor) and D2 (acceptor) conjugated antibodies (as provided by the Cisbio kit #64AERPEG/H) diluted 1:100 in Detection Buffer (as provided by the Cisbio kit #64AERPEG/H). Plates were then sealed and incubated at room temperature in the dark. After an overnight incubation, the TR-FRET signal was detected on a suitable reader (Envision, PerkinElmer). The lower the TR-FRET signal the higher the higher the SHP2 inhibition in cells.
# The activity of each compound dilution was calculated as percentage between vehicle DMSO treated cells and no cells, 0% inhibition and 100% inhibition respectively. The percentage activity is fitted against the compound dilutions with a four-parameter logistic regression. The inflection point (i.e. the concentration at which half-maximal inhibition is achieved) is the IC50.
row,Compound,IC50 [nM]
1,"Cc1csc(C2(CN)C3CCN(c4cnc5c(-c6cccc7c6OCO7)n[nH]c5n4)CC32)n1 (stereo not drawn) [Example 91, (3-(3-(Benzo[d][1,3]dioxol-4-yl)-1H-pyrazolo[3,4-b]pyrazin-6-yl)-7-(4-methylthiazol-2-yl)-3-azabicyclo[4.1.0]heptan-7-yl)methanamine]",< 1000
2,"NC[C@]1(c2ccccc2F)[C@@H]2CCN(c3cnc4c(-c5ccc(OC(F)F)c6ncccc56)n[nH]c4n3)C[C@@H]21 [Example 160, ((1S,6R,7R)-3-(3-(8-(difluoromethoxy)quinolin-5-yl)-1H-pyrazolo[3,4-b]pyrazin-6-yl)-7-(2-fluorophenyl)-3-azabicyclo[4.1.0]heptan-7-yl)methanamine]",< 1000
3,"Cc1cc([C@@]2(CN)[C@@H]3CCN(c4cnc5c(-c6cccc(-c7ncco7)c6Cl)n[nH]c5n4)C[C@@H]32)no1 [Example 111, ((1S,6R,7S)-3-(3-(2-chloro-3-(oxazol-2-yl)phenyl)-1H-pyrazolo[3,4-b]pyrazin-6-yl)-7-(5-methylisoxazol-3-yl)-3-azabicyclo[4.1.0]heptan-7-yl)methanamine]",< 1000
4,"Cc1csc([C@@]2(CN)[C@@H]3CN(c4cnc(Sc5ccnc(-n6cccn6)c5Cl)cn4)C[C@@H]32)n1 [Example 520, ((1R,5S,6r)-3-(5-((3-chloro-2-(1H-pyrazol-1-yl)pyridin-4-yl)thio)pyrazin-2-yl)-6-(4-methylthiazol-2-yl)-3-azabicyclo[3.1.0]hexan-6-yl)methanamine]",< 1000
5,"Cc1c(-c2n[nH]c3nc(N4CC[C@@H]5[C@H](C4)[C@@]5(CN)c4cc(F)cc(F)c4)cnc23)ccc2nn(C)cc12 [Example 308, ((1S,6R,7R)-7-(3,5-difluorophenyl)-3-(3-(2,4-dimethyl-2H-indazol-5-yl)-1H-pyrazolo[3,4-b]pyrazin-6-yl)-3-azabicyclo[4.1.0]heptan-7-yl)methanamine]",< 1000
6,"NC[C@]1(c2ccccc2F)[C@@H]2CCN(c3nc4nc(Sc5ccnc(-n6cccn6)c5Cl)cnc4[nH]3)C[C@@H]21 [Example 342, ((1S,6R,7R)-3-(5-((3-chloro-2-(1H-pyrazol-1-yl)pyridin-4-yl)thio)-1H-imidazo[4,5-b]pyrazin-2-yl)-7-(2-fluorophenyl)-3-azabicyclo[4.1.0]heptan-7-yl)methanamine]",> 5000
7,"CC(C)(C)C#Cc1n[nH]c2nc(N3CC[C@@H]4[C@H](C3)[C@@]4(CN)c3ccccc3F)cnc12 [Example 366, ((1S,6R,7R)-3-(3-(3,3-dimethylbut-1-yn-1-yl)-1H-pyrazolo[3,4-b]pyrazin-6-yl)-7-(2-fluorophenyl)-3-azabicyclo[4.1.0]heptan-7-yl)methanamine]",< 1000
8,"NC[C@]1(c2ccsn2)[C@@H]2CN(c3cnc4c(-c5ccc6nn(C(F)F)cc6c5Cl)n[nH]c4n3)C[C@@H]21 [Example 468, ((1R,5S,6r)-3-(3-(4-chloro-2-(difluoromethyl)-2H-indazol-5-yl)-1H-pyrazolo[3,4-b]pyrazin-6-yl)-6-(isothiazol-3-yl)-3-azabicyclo[3.1.0]hexan-6-yl)methanamine]",< 1000
9,"Cc1csc([C@@]2(CN)[C@@H]3CN(c4nc(C)n(-c5cccc(Cl)c5Cl)c(=O)c4Cl)C[C@@H]32)n1 [Example 526, 6-((1R,5S,6r)-6-(aminomethyl)-6-(4-methylthiazol-2-yl)-3-azabicyclo[3.1.0]hexan-3-yl)-5-chloro-3-(2,3-dichlorophenyl)-2-methylpyrimidin-4(3H)-one]",> 5000
10,"Cc1csc([C@@]2(CN)[C@@H]3CN(c4cnc5c(-c6ccnc(-n7cccn7)c6Cl)n[nH]c5n4)C[C@@H]32)n1 [Example 516, ((1R,5S,6r)-3-(3-(3-chloro-2-(1H-pyrazol-1-yl)pyridin-4-yl)-1H-pyrazolo[3,4-b]pyrazin-6-yl)-6-(4-methylthiazol-2-yl)-3-azabicyclo[3.1.0]hexan-6-yl)methanamine]",< 1000
11,"NCC1(c2ccccc2F)C2CCN(c3cc4nc(Sc5ccnc(N)c5Cl)cnc4[nH]3)CC21 (stereo not drawn) [Example 59, 4-((6-(7-(aminomethyl)-7-(2-fluorophenyl)-3-azabicyclo[4.1.0]heptan-3-yl)-5H-pyrrolo[2,3-b]pyrazin-2-yl)thio)-3-chloropyridin-2-amine]",< 1000
12,"Cc1csc([C@@]2(CN)[C@@H]3CCN(c4cnc5c(-c6ccc(F)c7ncccc67)c[nH]c5n4)C[C@@H]32)n1 [Example 502, ((1S,6R,7S)-3-(7-(8-fluoroquinolin-5-yl)-5H-pyrrolo[2,3-b]pyrazin-3-yl)-7-(4-methylthiazol-2-yl)-3-azabicyclo[4.1.0]heptan-7-yl)methanamine]",< 1000

# Other lines, results leading:
row,IC50 [nM],Compound
1,< 1000,"Cn1cc2c(C3CC3)c(-c3n[nH]c4nc(N5CC[C@@H]6[C@H](C5)[C@@]6(CN)c5ccccc5F)cnc34)ccc2n1 [Example 194, ((1S,6R,7R)-3-(3-(4-cyclopropyl-2-methyl-2H-indazol-5-yl)-1H-pyrazolo[3,4-b]pyrazin-6-yl)-7-(2-fluorophenyl)-3-azabicyclo[4.1.0]heptan-7-yl)methanamine]"
2,> 5000,"NC[C@]1(c2ccccc2F)[C@@H]2CCN(c3cnc4c(-c5cc(C(N)=O)ccc5Cl)n[nH]c4n3)C[C@@H]21 [Example 281, 3-(6-((1S,6R,7R)-7-(aminomethyl)-7-(2-fluorophenyl)-3-azabicyclo[4.1.0]heptan-3-yl)-1H-pyrazolo[3,4-b]pyrazin-3-yl)-4-chlorobenzamide]"
3,< 1000,"NC[C@]1(c2ccccc2F)[C@@H]2CCN(c3cnc4c(-c5ccc(-c6cc(F)c(O)c(F)c6)cc5Cl)n[nH]c4n3)C[C@@H]21 [Example 313, 4′-(6-((1S,6R,7R)-7-(aminomethyl)-7-(2-fluorophenyl)-3-azabicyclo[4.1.0]heptan-3-yl)-1H-pyrazolo[3,4-b]pyrazin-3-yl)-3′-chloro-3,5-difluoro-[1,1′-biphenyl]-4-ol]"
4,> 5000,"N#CNC(=O)c1ccc(-c2n[nH]c3nc(N4CC[C@@H]5[C@H](C4)[C@@]5(CN)c4ccccc4F)cnc23)c(Cl)c1 [Example 310, 4-(6-((1S,6R,7R)-7-(aminomethyl)-7-(2-fluorophenyl)-3-azabicyclo[4.1.0]heptan-3-yl)-1H-pyrazolo[3,4-b]pyrazin-3-yl)-3-chloro-N-cyanobenzamide]"
5,> 5000,"NC[C@]1(c2ccccc2F)[C@@H]2CCN(c3cnc4c(-c5ccc(CC(N)=O)cc5Cl)n[nH]c4n3)C[C@@H]21 [Example 328, 2-(4-(6-((1S,6R,7R)-7-(aminomethyl)-7-(2-fluorophenyl)-3-azabicyclo[4.1.0]heptan-3-yl)-1H-pyrazolo[3,4-b]pyrazin-3-yl)-3-chlorophenyl)acetamide]"
6,> 5000,"NC[C@]1(c2ccccc2F)[C@@H]2CCN(c3cnc4c(-c5ccc(-c6nsc(O)n6)cc5Cl)n[nH]c4n3)C[C@@H]21 [Example 379, 3-(4-(6-((1S,6R,7R)-7-(aminomethyl)-7-(2-fluorophenyl)-3-azabicyclo[4.1.0]heptan-3-yl)-1H-pyrazolo[3,4-b]pyrazin-3-yl)-3-chlorophenyl)-1,2,4-thiadiazol-5-ol]"
7,< 1000,"Cc1cc(C(N)=O)ncc1-c1n[nH]c2nc(N3CC[C@@H]4[C@H](C3)[C@@]4(CN)c3ccccc3F)cnc12 [Example 307, 5-(6-((1S,6R,7R)-7-(aminomethyl)-7-(2-fluorophenyl)-3-azabicyclo[4.1.0]heptan-3-yl)-1H-pyrazolo[3,4-b]pyrazin-3-yl)-4-methylpicolinamide]"

# Molecular target: SHP-2 enzyme (Met1-Leu525) (Homo sapiens (Human), UniProt Q06124)
# Sequence (Q06124 1-525): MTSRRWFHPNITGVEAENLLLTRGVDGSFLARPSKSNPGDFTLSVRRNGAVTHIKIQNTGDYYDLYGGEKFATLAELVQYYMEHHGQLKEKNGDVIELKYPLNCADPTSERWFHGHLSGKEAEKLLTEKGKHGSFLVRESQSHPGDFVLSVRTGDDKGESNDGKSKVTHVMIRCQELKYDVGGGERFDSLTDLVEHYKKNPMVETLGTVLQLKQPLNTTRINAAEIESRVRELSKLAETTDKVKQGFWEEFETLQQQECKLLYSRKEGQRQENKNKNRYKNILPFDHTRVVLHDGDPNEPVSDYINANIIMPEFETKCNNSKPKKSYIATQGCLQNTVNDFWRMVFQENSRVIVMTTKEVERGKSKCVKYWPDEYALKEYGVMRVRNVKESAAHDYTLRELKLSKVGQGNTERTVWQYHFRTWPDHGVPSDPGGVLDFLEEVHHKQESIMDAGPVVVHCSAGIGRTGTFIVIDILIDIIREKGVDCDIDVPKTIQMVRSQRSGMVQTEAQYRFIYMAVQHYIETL
# Assay: SHP2 inhibition enzymatic assay
# Format: biochemical
# Conditions: 0.5 nM SHP-2 activated by 500 nM IRS1 peptide, 75 μM DiFMUP substrate; read-out: SHP2wt-IC50
# Protocol: The assay was performed as described in YP Chen et al, Nature (535)2016. Assay volume of 20 μL/well was assembled in 384 well black polystyrene low-binding microplates (Greiner), using the following buffer: 60 mM HEPES pH 7.2, 75 mM NaCl, 75 mM KCl, 1 mM EDTA pH 8, 0.05% tween-20, 5 mM DTT. The SHP-2 enzyme (synthetized by Origene, Met1-Leu525, cat #TP750155) was used at a final concentration of 0.5 nM. The enzyme was activated by 500 nM IRS1 peptide (sequence: H2N-LN(pY)IDLDLV(dPEG8)LST(pY)ASINFQK-amide SEQ ID No. 1) and incubated with 75 μM DiFMUP (Sigma) as substrate.
# Briefly, DMSO serially diluted testing compounds were transferred to the bottom of the assay plate. SHP2 was then added together with the IRS1 peptide. 30 min post incubation, the DiFMUP substrate was added to the reaction and incubated 30 min at room temperature. Finally 5 μL of 160 μM bpV (Potassium bisperoxo[1,10-phenanthroline]oxovanadate [V], Sigma) were added to stop and quench the reaction. The fluorescence was detected by a microplate reader (Envision, PerkinElmer) according to the DiFMUP excitation and emission wavelength. The lower the fluorescence the higher the SHP2 inhibition. […] The percentage inhibition is fitted against the compound dilutions with a four-parameter logistic regression. The inflection point (i.e. the concentration at which half-maximal inhibition is achieved) is the IC50.
row,Compound,IC50 [nM]
1,"Cc1csc(C2(CN)C3CCN(c4cnc5c(-c6cccc7c6OCO7)n[nH]c5n4)CC32)n1 (stereo not drawn) [Example 91, (3-(3-(Benzo[d][1,3]dioxol-4-yl)-1H-pyrazolo[3,4-b]pyrazin-6-yl)-7-(4-methylthiazol-2-yl)-3-azabicyclo[4.1.0]heptan-7-yl)methanamine]",< 500
2,"NC[C@]1(c2ccccc2F)[C@@H]2CCN(c3cnc4c(-c5ccc(OC(F)F)c6ncccc56)n[nH]c4n3)C[C@@H]21 [Example 160, ((1S,6R,7R)-3-(3-(8-(difluoromethoxy)quinolin-5-yl)-1H-pyrazolo[3,4-b]pyrazin-6-yl)-7-(2-fluorophenyl)-3-azabicyclo[4.1.0]heptan-7-yl)methanamine]",< 500
3,"NC[C@]1(c2cc(F)ccc2F)[C@@H]2CCN(c3cnc4nc(-c5ccc6c(c5)CCC(=O)N6)ccc4n3)C[C@@H]21 [Example 531, 6-(2-((1S,6R,7R)-7-(aminomethyl)-7-(2,5-difluorophenyl)-3-azabicyclo[4.1.0]heptan-3-yl)pyrido[2,3-b]pyrazin-6-yl)-3,4-dihydroquinolin-2(1H)-one]",< 500

# Results, then the compound that gave them:
row,IC50 [nM],Compound
1,< 500,"Cn1cc2c(C3CC3)c(-c3n[nH]c4nc(N5CC[C@@H]6[C@H](C5)[C@@]6(CN)c5ccccc5F)cnc34)ccc2n1 [Example 194, ((1S,6R,7R)-3-(3-(4-cyclopropyl-2-methyl-2H-indazol-5-yl)-1H-pyrazolo[3,4-b]pyrazin-6-yl)-7-(2-fluorophenyl)-3-azabicyclo[4.1.0]heptan-7-yl)methanamine]"
2,< 500,"NC[C@]1(c2ccccc2F)[C@@H]2CCN(c3cnc4c(-c5cc(C(N)=O)ccc5Cl)n[nH]c4n3)C[C@@H]21 [Example 281, 3-(6-((1S,6R,7R)-7-(aminomethyl)-7-(2-fluorophenyl)-3-azabicyclo[4.1.0]heptan-3-yl)-1H-pyrazolo[3,4-b]pyrazin-3-yl)-4-chlorobenzamide]"

# From patent US20240109900A1, “AZABICYCLIC SHP2 INHIBITORS” (IRBM S.P.A., priority 2021, published 2024)
